Patent publication EP4111863A1, “PHOSPHORUS USE EFFICIENCY ENHANCERS AS PLANT GROWTH PROMOTORS” (EuroChem Antwerpen, priority 2021, dated 2023)

System: Arabidopsis
Assay: Arabidopsis vertical plate growth assay (primary root length, shoot biomass)
Type: in vivo, Arabidopsis thaliana
Settings: Table 2; low phosphate, versus control without compound
Method: (§1) All Arabidopsis plant experiments were performed using the Arabidopsis thaliana Columbia-0 background. The Arabidopsis pSPX1::GUS line is described in the […] 2008, 54: 965-975. For rice, the cultivar Nipponbare was used. For maize, the cultivars DKC 2931 and B104 were used for regular pot experiments and sand-based pot experiments, respectively. For soybean, the cultivar Primus was used. […] The medium was solidified due to the addition of 0,6% Gelrite, unless stated otherwise. In case of vertical plates (root length and root hair measurements), the medium was supplied with 0.5% of sucrose and 1 µM (low phosphate, 1 µM KH2PO4, 9.9 mM KCI), 10 µM (low phosphate 10 µM KH2PO4, 9.9 mM KCI) or 1.25 mM KH2PO4 (high phosphate). Arabidopsis seeds were stratified for 2 days at 4 °C before germination. Seedlings were germinated in climate-controlled growth chambers at 22 °C under continuous light (100 µmol m^-2 s^-1). Husked rice seeds were germinated on wetted Whatman paper for 2 days at 37 °C and then transferred to Sterivent boxes or square Petri dishes with solid medium. Maize and soybean seeds were wetted 24 hours at room temperature prior to sowing in pots.
Arabidopsis primary root growth experiments were done on MS1/2 on vertical standing plates and roots were measured 11 days after germination. Roots were imaged using a flatbed scanner (EPSON Expression 11000XL) and root length was measured using ImageJ software. Arabidopsis shoot biomass was determined in 11 days after germination and growth on vertical standing plates with modMS. Arabidopsis leaf area was measured 21 days after germination on horizontal plates with modMS medium. Plates were scanned from the top using a flatbed scanner (EPSON Expression 11000XL) and the visible leaf area was measured using ImageJ software. Rice plate experiments used vertically standing Petri dishes containing MS1/2 medium (low phosphate - 0.001 mM) solidified with 0.8% washed agar. Plant height was measured 11 days after germination. Rice box experiments used modMS medium and a low phosphate condition of 0.025 mM phosphate. Plant height was measured 13 days after germination. All growth experiments occurred with 10 µM of compound and in low phosphate conditions, unless stated otherwise. Controls always received the same DMSO concentration.

Q: Which “Primary root length (in % versus control)” value does the source give for `Cc1nc(N2CCOCC2)sc1C(=O)NN` [Compound 4.1] here?
A: The value was 118%.

Q: For `CNC(=O)c1sc(N2CCOC(C)C2)nc1C` (centres unmarked) [Compound 4.3], which “Primary root length (in % versus control)” value is on record?
A: Its value is 122%.

System: SPX1
Assay: Chemical activity assessment: SPX1 phosphate starvation biomarker, pSPX1::GUS reporter line, GUS stained area
Type: in vivo, Arabidopsis thaliana
Settings: Table 2; 50 µM compound, low phosphate modMS liquid medium, 7 days after germination; low phosphate control average of the same plate
Method: as §1
For the chemical activity assessment 3 to 8 seeds per well of Arabidopsis pSPX1::GUS line were sown in 96-well plates containing 150 µl of low phosphate modMS liquid medium containing 1% of sucrose. Compounds were added in 50 µM concentration, starting from a 5 mM stock of compounds solved in DMSO. Different chemical substances were separately added to different wells. Per plate, 16 control wells were used, 8 containing only the low phosphate medium and 1% DMSO, and 8 containing high phosphate medium and 1% DMSO. 7 days after germination, plates were scanned using a flatbed scanner (EPSON Expression 11000XL) and analyzed for leaf size. After scanning, the growth medium was replaced by GUS staining solution (see Plant Mol. Biol. Rep. 1994, 12: 37-42 for details) and incubated for 1.5 hours at 37 °C. The plates were scanned a second time and analyzed for GUS signal area. Measurements of both leaf area and GUS signal area were conducted by filtering out and measure the green and blue signal, respectively using ImageJ software. If the green leaf area was 50% or less than the control, samples were omitted. Additionally, all results were visually screened for leaf size and GUS signal.

Q: For `CC(C)c1ncsc1C(=O)NCC1CN(C)CCO1` (centres unmarked) [Compound 4.4], which “GUS (SPX1) stained area normalized to the number of seeds (pixels)” value (“GUS (SPX1) stained area normalized” for short) is on record?
A: Its value is 106 pixels.

Same assay, conditions: Table 3; 50 µM compound, low phosphate modMS liquid medium, 7 days after germination; low phosphate control average of the same plate

Q: `FC(F)(F)c1ccnc(N2CCOC(c3nccs3)C2)n1` (centres unmarked) was tested. Which “GUS (SPX1) stained area normalized” value did it give?
A: Its value is 0 pixels.

Q: `C(=C\c1cc2ccccc2nc1N1CCOCC1)/c1nc2ccccc2s1` was tested. Which “GUS (SPX1) stained area normalized” value did it give?
A: The value was 0 pixels.

Q: For `CN(CC1COc2ccccc2O1)c1ccc(S(=O)(=O)N2CCOCC2)cn1` (centres unmarked), which “GUS (SPX1) stained area normalized” value is on record?
A: The value was 0 pixels.

Q: Which “GUS (SPX1) stained area normalized” value does the source give for `CCc1cc(N2CC(C)OCC2c2ccccc2)nc(-c2ccccn2)n1` (centres unmarked) here?
A: Its value is 5 pixels.

Q: With `Cc1csc(C2CN(Cc3ncc(C(C)(C)C)o3)CCO2)n1` (centres unmarked) as the molecule, how does the “GUS (SPX1) stained area normalized” value read?
A: Its value is 5 pixels.

Q: How did the “GUS (SPX1) stained area normalized” value turn out when `CC(C)(C)CC(C)(C)NCc1cnc(N2CCOCC2)nc1` was run?
A: The value was 5 pixels.

Q: For `CN1CCOC(C(=O)NC(c2c(F)cccc2F)C(F)(F)F)C1` (centres unmarked), which “GUS (SPX1) stained area normalized” value is on record?
A: The value was 5 pixels.

Q: `CC1(C)CN(C(=O)c2csc(-c3cccs3)n2)CCO1` was tested. Which “GUS (SPX1) stained area normalized” value did it give?
A: Its value is 6 pixels.

Q: Which “GUS (SPX1) stained area normalized” value does the source give for `c1cc2c(cc1Sc1nc(CN3CCOCC3)nc3sc4c(c13)CCC4)OCCO2` here?
A: Its value is 6 pixels.

Q: Which “GUS (SPX1) stained area normalized” value does the source give for `O=S(=O)(c1ccc(Sc2nnc(-c3ccncc3)[nH]2)nc1)N1CCOCC1` here?
A: Its value is 6 pixels.

Q: With `Cn1cccc1C1COCCN1CCOCC1CC1` (centres unmarked) as the molecule, how does the “GUS (SPX1) stained area normalized” value read?
A: Its value is 6 pixels.

Q: How did the “GUS (SPX1) stained area normalized” value turn out when `Cc1cnn(CC2CN(C(C)C(=O)Nc3cc(C)no3)CCO2)c1` (centres unmarked) was run?
A: Its value is 7 pixels.

Q: For `CCC(CC)C(CNC(=O)c1cc(C)nc2onc(C)c12)N1CCOCC1` (centres unmarked), which “GUS (SPX1) stained area normalized” value is on record?
A: Its value is 7 pixels.

Q: For `Cc1cnc(CN2CCOC(c3nc(C(C)C)n[nH]3)C2)o1` (centres unmarked), which “GUS (SPX1) stained area normalized” value is on record?
A: Its value is 7 pixels.

Q: For `O=C(COn1nnc2ccc(Cl)cc21)Nc1cc(S(=O)(=O)N2CCOCC2)ccc1Cl`, which “GUS (SPX1) stained area normalized” value is on record?
A: The value was 7 pixels.

Q: `CCN(CC)S(=O)(=O)c1ccc(N2CCOCC2)c(NC(=O)c2ccccc2OC)c1` was tested. Which “GUS (SPX1) stained area normalized” value did it give?
A: The value was 7 pixels.

Q: Which “GUS (SPX1) stained area normalized” value does the source give for `CC(C)(C)Nc1nn(CN2CCOCC2)c(=S)s1` here?
A: The value was 7 pixels.

Q: With `CC(C)CC1COCCN1C(=O)Nc1nnc(C(F)(F)F)s1` (centres unmarked) as the molecule, how does the “GUS (SPX1) stained area normalized” value read?
A: Its value is 7 pixels.

Q: How did the “GUS (SPX1) stained area normalized” value turn out when `CC1CN(C(C)(C)CNC(=O)C2CCCN2C2CCN(CC(F)(F)F)CC2)CC(C)O1` (centres unmarked) was run?
A: Its value is 7 pixels.

Q: For `O=C(NCc1ccccc1CS(=O)(=O)N1CCOCC1)c1ccc([N+](=O)[O-])cc1`, which “GUS (SPX1) stained area normalized” value is on record?
A: Its value is 7 pixels.

Q: How did the “GUS (SPX1) stained area normalized” value turn out when `COCC(C)Nc1ccc(N2CCOC(C)(C)C2)cc1OC` (centres unmarked) was run?
A: The value was 7 pixels.

Q: How did the “GUS (SPX1) stained area normalized” value turn out when `O=C(Nc1sc2c(c1C(=O)N1CCOCC1)CCCC2)C1CCCc2ccccc21` (centres unmarked) was run?
A: The value was 8 pixels.

Q: With `O=C(Nc1ccc(F)c(C(F)(F)F)c1)N1CCOCC1` as the molecule, how does the “GUS (SPX1) stained area normalized” value read?
A: The value was 8 pixels.

Q: Which “GUS (SPX1) stained area normalized” value does the source give for `O=C(NC1COc2ccccc21)N1CCOC(c2ccc(Cl)cc2)C1` (centres unmarked) here?
A: The value was 8 pixels.

Q: Which “GUS (SPX1) stained area normalized” value does the source give for `COc1cc(C(C)=O)ccc1OC(=O)N1CCOCC1` here?
A: The value was 8 pixels.

Q: How did the “GUS (SPX1) stained area normalized” value turn out when `CC1CN(Cn2nc(-c3cccs3)nc2S)C(C)CO1` (centres unmarked) was run?
A: Its value is 9 pixels.

Q: For `CC(c1nc(C(C)(C)C)no1)N1CCOC(c2ccccc2)C1` (centres unmarked), which “GUS (SPX1) stained area normalized” value is on record?
A: Its value is 9 pixels.

Q: Which “GUS (SPX1) stained area normalized” value does the source give for `CC(C)Cn1c(SCC(=O)c2ccc(Br)s2)nnc1N1CCOCC1` here?
A: Its value is 9 pixels.

Q: Which “GUS (SPX1) stained area normalized” value does the source give for `O=S(=O)(CCN1CCOC2CCCCC21)c1cc(Cl)ccc1Cl` (centres unmarked) here?
A: The value was 9 pixels.

Q: How did the “GUS (SPX1) stained area normalized” value turn out when `COCCn1c(SCC(=O)N2CCOCC2)nnc1-c1ccncc1` was run?
A: Its value is 9 pixels.

Q: Which “GUS (SPX1) stained area normalized” value does the source give for `O=C1C(=O)N(C2CCCC2)C(=O)N1Cc1cccc(S(=O)(=O)N2CCOCC2)c1` here?
A: Its value is 9 pixels.

Q: With `Cc1c(C(=O)NCC2CN(CC(C)C)CCO2)cnn1C` (centres unmarked) as the molecule, how does the “GUS (SPX1) stained area normalized” value read?
A: Its value is 9 pixels.

Q: `Brc1ccc(CN2CCOC(Cn3cccn3)C2)s1` (centres unmarked) was tested. Which “GUS (SPX1) stained area normalized” value did it give?
A: Its value is 10 pixels.

Q: With `O=C(COc1cccc(F)c1)Nc1sc2c(c1C(=O)N1CCOCC1)CCCC2` as the molecule, how does the “GUS (SPX1) stained area normalized” value read?
A: Its value is 10 pixels.

Q: For `Cc1ccc(S(=O)(=O)N2CCN(S(=O)(=O)N3CCOCC3)CC2)cc1`, which “GUS (SPX1) stained area normalized” value is on record?
A: Its value is 10 pixels.

Q: `CC1CN(C(=O)c2nn(-c3ccccc3)c(=O)c3ccccc23)CC(C)O1` (centres unmarked) was tested. Which “GUS (SPX1) stained area normalized” value did it give?
A: The value was 10 pixels.

Q: With `O=C(Nc1cccc(NC(=O)N2CCOC3(CCC3)C2)c1)C1CC1` as the molecule, how does the “GUS (SPX1) stained area normalized” value read?
A: Its value is 11 pixels.

Q: `CCC(CC)C(C(=O)NCc1cccc(C)c1)N1CCOCC1` (centres unmarked) was tested. Which “GUS (SPX1) stained area normalized” value did it give?
A: The value was 11 pixels.

Q: For `CN1CCOC2CN(Cc3cc(O)ccc3Br)CC21` (centres unmarked), which “GUS (SPX1) stained area normalized” value is on record?
A: The value was 12 pixels.

Q: For `Cc1csc(C2COCCN2C(=O)NC2CCc3ccccc32)n1` (centres unmarked), which “GUS (SPX1) stained area normalized” value is on record?
A: Its value is 12 pixels.

Q: With `COCC1CN(C(=O)NCCc2c[nH]c3ccc(F)cc23)CCO1` (centres unmarked) as the molecule, how does the “GUS (SPX1) stained area normalized” value read?
A: Its value is 13 pixels.

Q: Which “GUS (SPX1) stained area normalized” value does the source give for `COC(=O)C1CN(Cc2sccc2Br)C[C@@H](C)O1` (some centres unmarked) here?
A: Its value is 13 pixels.

Q: For `CCc1nnsc1C(=O)NCc1ccccc1N1CCOCC1`, which “GUS (SPX1) stained area normalized” value is on record?
A: The value was 13 pixels.

Q: Which “GUS (SPX1) stained area normalized” value does the source give for `O=C1NC(c2cc3ccccc3nc2N2CCOCC2)Nc2ccccc21` (centres unmarked) here?
A: The value was 14 pixels.
